The record followed here is patent US12553889B2, “Small molecules targeting the intrinsically disordered structural ensemble of α-synuclein protect against diverse α-synuclein mediated dysfunctions” (The Regents of the University of California, priority 2019, dated 2026).

The target in the test is αSyn (Homo sapiens, UniProt P37840). Put plainly: αSyn fibrillization assay (Thioflavin T fluorescence). It counts as biochemical. More on the design: made in house; host or cells: E. coli BL21(DE3), pET-21d. The note with it: for impact on αSyn fibrillization (thioflavin fluorescence signal): compound at 300 μM, 70 μM αSyn, vs 0.5% DMSO control. As to the method: Fibrillization assays. Prior to each aggregation assay, purified αSyn at 5 mg/mL was treated with 6M guanidine and dialyzed 36 hours in a 3500 MW cutoff Slide-A-lyzer with three changes of 20 mM sodium phosphate and 100 mM NaCl pH 7.4 buffer. αSyn was centrifuged at 130,000 g for 40 minutes in a Beckman Ultracentrifuge to remove seeding species and supernatant used for assays. For initial testing, 60 mM compound in DMSO was diluted to 300 μM in 0.5% DMSO and controls contained equivalent DMSO concentrations. Assay samples contained 20 μM Thioflavin T, filtered through a 0.45 μm Acrodisc filter prior to each assay, 70 μM αSyn in 20 mM sodium phosphate and 100 mM NaCl pH 7.4. One teflon bead, (0.125″ PTFE, Grade 2 polished) was placed in each well of a 96 well black with clear bottom assay plate (Corning) in a total volume of 500 μL. The plate was sealed with Mylar and parafilm, placed at 37° C. in a Tecan F200Pro Plate Reader and shaken at an amplitude of 6 mm for 120 hours continuously except for a brief time during reading of the plate. Thioflavin T fluorescence was detected by excitation at 440 nm and reading emissions at 485 nm each 60 minutes throughout the assay. To generate αSyn seeds for the seeding assays, αSyn at 10 mg/mL was incubated with stirring at 43° C. for 24 hours followed by exhaustive sonication. 1% (by mass) of seeds were added to the fibrillization assay. Samples were plated in quadruplicate, and the replicates averaged for each experiment for plotted data. Data were analyzed in Excel using XL-fit sigmoidal model #600 and when normalized, comparing fluorescence values at 50 hours for compounds as a percentage of DMSO control.
α-Syn for the Fibrillization assay. Wildtype human αSyn was produced from a pET-21d plasmid (Millipore, Burlington, MA) in E. coli BL21(DE3) cells induced by addition of 1 mM […] and incubated at 16° C. overnight. Cells were harvested by centrifugation at 4,000×g for 10 minutes and stored at −80° C. Frozen cells expressing αSyn protein were resuspended in 50 mM Tris, pH 7.5, 1 mM TCEP, 1 mM EDTA, and 1 mM L-Methionine and lysed using a microfluidizer. Lysate was centrifuged at 7000×g for 0.5 hours at 21° C. The supernatant was boiled in a water bath for 15 minutes, cooled on ice and centrifuged at 45,000 g for 30 min. The supernatant was filtered through a 0.2 μm Corning filter and subjected to ion exchange chromatography using a Capto ImpRes Q (GE Healthcare, Upssala, Sweden) anion exchange (IEX) column at ambient temperature. The column was eluted with a gradient of 100 column volumes from 0 to 1M NaCl using an AKTA Explorer 100 Liquid Chromatography System (GE Healthcare, Uppsala, Sweden). Pure αSyn fractions were desalted to 50 mM KPO4, pH 7.5 and 50 mM NaCl using PD-10 columns (GE Healthcare, Chicago, IL) and concentrated to 5 mg/mL or 10 mg/ml (3K MWCO, Amicon Ultra, Millipore, Burlington, MA).
Statistical Analysis of compound activity in Fibrillization assays. For the analyses of compound activity in the αSyn fibrillization assay, the relative fluorescence unit (RFU) data obtained from compounds were compared to those of DMSO, to identify those that are statistically different from DMSO at various time points. Each experiment contained 4 replicates of each compound and of DMSO control. […] A repeated measures analysis of variance was performed on logarithmic transformed data using a linear mixed effects model which included Compound, Time, Replicate (Compound) and Compound*Time. The covariance structure across time that minimized the corrected Akaike Information Criterion (AICC) was used and the Kenward and Roger method was used to determine the appropriate degrees of freedom. Each compound mean was compared to the DMSO mean using Bonferroni multiplicity adjusted t-tests. Statistical analyses were conducted using the MIXED procedure in SAS 9.1 (SAS Institute Inc. Cary, NC, USA). Statistical significance refers to p-value<0.05.

“Also recorded” adds a separate entry of the source.

As to `CNC(=O)c1cc(O)ccc1N` [Compound 576755, 2-amino-5-hydroxy-N-methylbenzamide], the “impact on αSyn fibrillization (thioflavin fluorescence signal)” value (“impact on αSyn fibrillization” below) is recorded as “inhibit fibrillization; also recorded: impair fibrillization”. Moreover, under “over 30 synuclein fibrillization experiments”, the “inhibition of aggregation when used as control” value is recorded as “robust inhibition of aggregation in all assays”.

Regarding `Cc1c(-c2csc(NC(C(N)=O)C3CCNCC3)n2)sc2ccccc12` (stereo not shown) [Compound 573437, 2-((4-(3-methylbenzo[b]thiophen-2-yl)thiazol-2-yl)amino)-2-(piperidin-4-yl)acetamide], the “impact on αSyn fibrillization” value is “missed by the more variable αSyn fibrillization assay”.

For `CNC(=O)CN(C(=O)Cc1noc2ccccc12)C(C)c1ccc(Cl)cc1` (stereo not shown) [Compound 582032, 2-(benzo[d]isoxazol-3-yl)-N-(1-(4-chlorophenyl)ethyl)-N-(2-(methylamino)-2-oxoethyl)acetamide], the “impact on αSyn fibrillization” value is “inhibit fibrillization; also recorded: impair fibrillization”.
